According to the supplement of paper PMC10307832:

How the values were obtained:
Assay in all cases: relative viability (nuclei count vs DMSO), 5 days (fraction); higher = more cells survive
[1] = compound: NC(=O)c1ccc(N(C(N)=O)c2c(F)cccc2F)nc1-c1ccc(F)cc1F [VX-702] + O=C(c1cc(Cc2n[nH]c(=O)c3ccccc23)ccc1F)N1CCN(C(=O)C2CC2)CC1 [Olaparib] (partner 8 µM)
In short: (§1)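 Lung cancer cell lines in 1536-well plates got either a single drug or a fixed anchor-drug dose together with five library-drug doses (not always all listed) in √10 steps, by pin tool, on the day after seeding. Nuclei were counted after 5 days, and relative viability is the treated-to-vehicle ratio of nuclei counts. Values are medians of duplicate plates.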

[2] = compound: NC(=O)c1ccc(N(C(N)=O)c2c(F)cccc2F)nc1-c1ccc(F)cc1F [VX-702] + COc1cccc2cc(-c3nc([C@H]4CC[C@H](C(=O)O)CC4)n4ncnc(N)c34)[nH]c12 [OSI-027] (partner 0.5 µM)
In short: as §1

[3] = compound: NC(=O)c1ccc(N(C(N)=O)c2c(F)cccc2F)nc1-c1ccc(F)cc1F [VX-702] + CC(=O)c1c(C)c2cnc(Nc3ccc(N4CCNCC4)cn3)nc2n(C2CCCC2)c1=O [Palbociclib] (partner 0.5 µM)
In short: as §1

[4] = compound: NC(=O)c1ccc(N(C(N)=O)c2c(F)cccc2F)nc1-c1ccc(F)cc1F [VX-702] + N=C(N)NC(=N)NCCc1ccccc1 [Phenformin] (partner 250 µM)
In short: as §1

[5] = compound: CC(C)(C)c1nc(-c2cccc(NS(=O)(=O)c3c(F)cccc3F)c2F)c(-c2ccnc(N)n2)s1 [Dabrafenib] + O=C(c1cc(Cc2n[nH]c(=O)c3ccccc23)ccc1F)N1CCN(C(=O)C2CC2)CC1 [Olaparib] (partner 8 µM)
In short: as §1

In the case of SW 900, the relative viability ([1]; first compound 0.02 µM) is reported as 0.772, the relative viability ([1]; first compound 0.2 µM) is reported as 0.878 and the relative viability ([1]; first compound 0.6325 µM) is reported as 0.887. For the same cell line, the relative viability ([1]; first compound 2 µM) was 0.893, the relative viability ([2]; first compound 0.02 µM) was 0.565 and the relative viability ([2]; first compound 0.2 µM) was 0.676. For the same cell line, the relative viability ([2]; first compound 0.6325 µM) was 0.592, the relative viability ([2]; first compound 2 µM) was 0.765 and the relative viability ([3]; first compound 0.02 µM) was 0.577. The relative viability ([3]; first compound 0.2 µM) was 0.566, the relative viability ([3]; first compound 0.6325 µM) was 0.575 and the relative viability ([3]; first compound 2 µM) was 0.539. For the same cell line, the relative viability ([4]; first compound 0.02 µM) was 0.634, the relative viability ([4]; first compound 0.2 µM) was 0.585 and the relative viability ([4]; first compound 0.6325 µM) was 0.869. It also gave a relative viability ([4]; first compound 2 µM) of 0.546, a relative viability ([5]; first compound 0.009487 µM) of 0.93 and a relative viability ([5]; first compound 0.09487 µM) of 0.775. The relative viability ([5]; first compound 0.3 µM) was 0.984.
